Data taken from patent US20210238139A1, “MODULATORS OF TRYPTOPHAN CATABOLISM” (E-Therapeutics PLC, priority 2018, published 2021).

These molecules were tested on SK-OV-3 cells (assay: Effect of compounds on tryptophan catabolism in SK-OV-3 cell line (inhibition of kynurenine production, LC-MS/MS)). Conditions: Homo sapiens, SK-OV-3, 24 h, SK-OV-3 cell line, 24 h incubation, kynurenine in supernatant by LC-MS/MS; read-out: IC50 Ranges (ic50 values for inhibition of Kynurenine production).
Assay type: cell-based
Summary of the method: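 Kynurenine in supernatants quantified by LC-MS/MS after 24 h compound exposure (37 °C; top 30 μM, eight 3-fold steps, duplicate) in DMEM F-12 containing 6 mg/mL L-tryptophan. Cells pre-plated overnight in McCoy's 5A with 10% FBS. Viability checked in parallel by ATP luminescence.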

| SMILES | IC50 [nM] |
| --- | --- |
| O=C(Nc1ccc(Cl)cc1)N(Cc1ccno1)C1CCCC1 [Compound 128, 3-(4-chlorophenyl)-1-cyclopentyl-1-(isoxazol-5-ylmethyl)urea] | 500 to 1000 |
| Cc1ccc(CN(C(=O)Nc2nc(-c3ccccc3)cs2)C2CCCC2)o1 [Compound 129, 1-cyclopentyl-1-[(5-methyl-2-furyl)methyl]-3-(4-phenylthiazol-2-yl)urea] | 1000 to 5000 |
| Cc1ccc(CN(C(=O)Nc2nc(C#N)cs2)C2CCCC2)o1 [Compound 135, 3-(4-cyanothiazol-2-yl)-1-cyclopentyl-1-[(5-methyl-2-furyl)methyl]urea] | 1000 to 5000 |
| Cc1ccc(CN(C(=O)Nc2ccccc2)C(C)C)o1 [Compound 138, 1-isopropyl-1-[(5-methyl-2-furyl)methyl]-3-phenyl-urea] | 1000 to 5000 |
| O=C(Nc1ccc(F)c(F)c1)N(Cc1cccc(OC(F)(F)F)c1)C1CCCC1 [Compound 142, 1-cyclopentyl-3-(3,4-difluorophenyl)-1-[[3 (trifluoromethoxy)phenyl]methyl]urea] | 1000 to 5000 |
| Cc1ncc(CN(C(=O)Nc2ccc(F)cc2)C2CCCC2)o1 [Compound 145, 1-cyclopentyl-3-(4-fluorophenyl)-1-[(2-methyloxazol-5-yl)methyl]urea] | 1000 to 5000 |
| O=C(Nc1ccc(Cl)cc1)N(Cc1ccon1)C1CCCC1 [Compound 149, 3-(4-chlorophenyl)-1-cyclopentyl-1-(isoxazol-3-ylmethyl)urea] | 500 to 1000 |
| Cc1ccc(CN(C(=O)Nc2ccc(-c3ccccc3)cc2)C2CCCC2)o1 [Compound 150, 1-cyclopentyl-1-[(5-methyl-2-furyl)methyl]-3-(4-phenylphenyl)urea] | 100 to 500 |
| Cc1ccc(CN(C(=O)Nc2nnc(-c3cc4ccccc4o3)o2)C2CCCC2)o1 [Compound 151, 3-[5-(benzofuran-2-yl)-1,3,4-oxadiazol-2-yl]-1-cyclopentyl-1-[(5-methyl-2-furyl)methyl]urea] | 500 to 1000 |
| Cc1ccc(CN(C(=O)Nc2ccc(C#Cc3ccccc3)cc2)C2CCCC2)o1 [Compound 155, 1-cyclopentyl-1-[(5-methyl-2-furyl)methyl]-3-[4-(2-phenylethynyl)phenyl]urea] | 500 to 1000 |
| Cc1ccc(CN(C(=O)Nc2ncc(Br)s2)C2CCCC2)o1 [Compound 161, 3-(5-bromothiazol-2-yl)-1-cyclopentyl-1-[(5-methyl-2-furyl)methyl]urea] | < 100 |
| Cc1ccc(CN(C(=O)Nc2ccc(-n3cc(CO)nn3)cc2)C2CCCC2)o1 [Compound 164, 1-cyclopentyl-3-[4-[4-(hydroxymethyl)triazol-1-yl]phenyl]-1-[(5-methyl-2-furyl)methyl]urea] | < 100 |
| CCN(Cc1ccc(C)o1)C(=O)Nc1ccccc1 [Compound 165, 1-ethyl-1-[(5-methyl-2-furyl)methyl]-3-phenyl-urea] | 1000 to 5000 |
| CCCN(Cc1ccc(C)o1)C(=O)Nc1ccccc1 [Compound 166, 1-[(5-methyl-2-furyl)methyl]-3-phenyl-1-propyl-urea] | 500 to 1000 |
| Cc1ccc(CN(C(=O)Nc2nnc(-c3cccs3)o2)C2CCCC2)o1 [Compound 168, 1-cyclopentyl-1-[(5-methyl-2-furyl)methyl]-3-[5-(2-thienyl)-1,3,4-oxadiazol-2-yl]urea] | 500 to 1000 |
| Cc1nc(C)c(CN(C(=O)Nc2ccc(F)c(F)c2)C2CCCC2)s1 [Compound 171, 1-cyclopentyl-1-[(2,4-dimethylthiazol-5-yl)methyl]-3-(3,4-difluorophenyl)-urea] | 1000 to 5000 |
| CCc1ccc(NC(=O)N(Cc2ccc(C)o2)C2CCCC2)cc1 [Compound 177, 1-cyclopentyl-3-(4-ethylphenyl)-1-[(5-methyl-2-furyl)methyl]urea] | < 100 |
| Cc1ccc(CN(C(=O)NCCc2ccccc2)C2CCCC2)o1 [Compound 181, 1-cyclopentyl-1-[(5-methyl-2-furyl)methyl]-3-(2-phenylethyl)urea] | 1000 to 5000 |

Second part, the molecule after the results:

| IC50 [nM] | SMILES |
| --- | --- |
| 1000 to 5000 | N#Cc1cccc(CN(C(=O)Nc2ccccc2)C2CCCC2)n1 [Compound 125, 1-[(6-cyano-2-pyridyl)methyl]-1-cyclopentyl-3-phenyl-urea] |
| 500 to 1000 | N#Cc1cccc(CN(C(=O)Nc2ccc(F)cc2)C2CCCC2)n1 [Compound 126, 1-[(6-cyano-2-pyridyl)methyl]-1-cyclopentyl-3-(4-fluorophenyl)urea] |
| > 5000 | O=C(Nc1ccc(F)cc1)N(Cc1ccno1)C1CCCC1 [Compound 127, 1-cyclopentyl-3-(4-fluorophenyl)-1-(isoxazol-5-ylmethyl)urea] |
| < 100 | C#Cc1ccc(NC(=O)N(Cc2cc3ccccc3o2)C2CCCC2)cc1 [Compound 131, 1-(benzofuran-2-ylmethyl)-1-cyclopentyl-3-(4-ethynylphenyl)urea] |
| 100 to 500 | N#Cc1ccc(NC(=O)N(Cc2cc3ccccc3o2)C2CCCC2)cc1 [Compound 132, 1-(benzofuran-2-ylmethyl)-3-(4-cyanophenyl)-1-cyclopentyl-urea] |
| 100 to 500 | Cc1ccc(CN(C(=O)Nc2nc(-c3ccccn3)cs2)C2CCCC2)o1 [Compound 133, 1-cyclopentyl-1-[(5-methyl-2-furyl)methyl]-3-[4-(2-pyridyl)thiazol-2-yl]urea] |
| 500 to 1000 | Cc1ccc(CN(C(=O)Nc2nc3ccccc3s2)C2CCCC2)o1 [Compound 134, 3-(1,3-benzothiazol-2-yl)-1-cyclopentyl-1-[(5-methyl-2-furyl)methyl]urea] |
| > 5000 | Cc1ccc(CN(C(=O)Nc2ccccc2)C2CCN(C(=O)OC(C)(C)C)CC2)o1 [Compound 136, tert-butyl 4-[(5-methyl-2-furyl)methyl-(phenylcarbamoyl)amino]piperidine-1-carboxylate] |
| 1000 to 5000 | Cc1ncc(CN(C(=O)Nc2ccccc2)C2CCCC2)o1 [Compound 143, 1-cyclopentyl-1-[(2-methyloxazol-5-yl)methyl]-3-phenyl-urea] |
| 100 to 500 | N#Cc1ccc(NC(=O)N(Cc2ccnc(C(F)(F)F)c2)C2CCC2)cc1 [Compound 152, 3-(4-cyanophenyl)-1-cyclobutyl-1-[[2-(trifluoromethyl)-4-pyridyl]methyl]urea] |
| < 100 | C#Cc1ccc(NC(=O)N(Cc2ccnc(C(F)(F)F)c2)C2CCC2)cc1 [Compound 153, 1-cyclobutyl-3-(4-ethynylphenyl)-1-[[2-(trifluoromethyl)-4-pyridyl]methyl]urea] |
| 500 to 1000 | Cc1ccc(CN(C(=O)Nc2ccc(C#CCc3ccccc3)cc2)C2CCCC2)o1 [Compound 156, 1-cyclopentyl-1-[(5-methyl-2-furyl)methyl]-3-[4-(3-phenylprop-1-ynyl)phenyl]urea] |
| 100 to 500 | N#Cc1cccc(CN(C(=O)Nc2ccc(Cl)cc2)C2CCCC2)n1 [Compound 157, 3-(4-chlorophenyl)-1-[(6-cyano-2-pyridyl)methyl]-1-cyclopentyl-urea] |
| 1000 to 5000 | Cc1ccc(CN(C(=O)Nc2ccc(-c3cnn(C)c3)nc2)C2CCCC2)o1 [Compound 160, 1-cyclopentyl-1-[(5-methyl-2-furyl)methyl]-3-[6-(1-methylpyrazol-4-yl)-3-pyridyl]urea] |
| < 100 | C#Cc1ccc(NC(=O)N(Cc2ccno2)C2CCCC2)cc1 [Compound 163, 1-cyclopentyl-3-(4-ethynylphenyl)-1-(isoxazol-5-ylmethyl)urea] |
| 1000 to 5000 | Cc1ccc(CN(C(=O)Nc2ccccc2)C2CC2)o1 [Compound 167, 1-cyclopropyl-1-[(5-methyl-2-furyl)methyl]-3-phenyl-urea] |
| 1000 to 5000 | Cc1ccc(CN(C(=O)Nc2nnc(C3CCCCC3)o2)C2CCCC2)o1 [Compound 169, 3-(5-cyclohexyl-1,3,4-oxadiazol-2-yl)-1-cyclopentyl-1-[(5-methyl-2-furyl)methyl]urea] |
| 1000 to 5000 | Cc1nc(C)c(CN(C(=O)Nc2ccccc2)C2CCCC2)s1 [Compound 170, 1-cyclopentyl-1-[(2,4-dimethylthiazol-5-yl)methyl]-3-phenyl-urea] |
| 100 to 500 | Cc1ccc(CN(C(=O)Nc2ccc(Cl)cc2F)C2CCCC2)o1 [Compound 172, 3-(4-chloro-2-fluoro-phenyl)-1-cyclopentyl-1-[(5-methyl-2-furyl)methyl]urea] |
| 500 to 1000 | Cc1ccc(CN(C(=O)Nc2nnc(-c3ccccc3)o2)C2CCCC2)o1 [Compound 175, 1-cyclopentyl-1-[(5-methyl-2-furyl)methyl]-3-(5-phenyl-1,3,4-oxadiazol-2-yl) urea] |
| 100 to 500 | Cc1ccc(CN(C(=O)Nc2ccccc2)C2CCCC2)o1 [Compound 176, 1-cyclopentyl-1-[(5-methyl-2-furyl)methyl]-3-phenyl-urea] |
| 1000 to 5000 | Cc1ccc(CN(C(=O)Nc2ccccc2)C2CCC2)o1 [Compound 178, 1-cyclobutyl-1-[(5-methyl-2-furyl)methyl]-3-phenyl-urea] |
| > 5000 | Cc1ccc(CN(C(=O)Nc2ccccc2)c2ncco2)o1 [Compound 179, 1-[(5-methyl-2-furyl)methyl]-1-oxazol-2-yl-3-phenyl-urea] |
| > 5000 | Cc1ccc(CN(C(=O)Nc2ccc(F)cc2)c2ncco2)o1 [Compound 180, 3-(4-fluorophenyl)-1-[(5-methyl-2-furyl)methyl]-1-oxazol-2-yl-urea] |
| 100 to 500 | Cc1ccc(CN(C(=O)Nc2ccc(Cl)cc2)c2nccn2C)o1 [Compound 182, 3-(4-chlorophenyl)-1-[(5-methyl-2-furyl)methyl]-1-(1-methylimidazol-2-yl) urea] |
| 1000 to 5000 | Cc1ccc(CN(C(=O)Nc2ccc(Cl)cc2)c2cnc[nH]2)o1 [Compound 183, 3-(4-chlorophenyl)-1-(1H-imidazol-5-yl)-1-[(5-methyl-2-furyl)methyl]urea] |

Same assay, conditions: Homo sapiens, SK-OV-3, 24 h, read-out: IC50 Ranges (ic50 values for inhibition of Kynurenine production)

| SMILES | IC50 [nM] |
| --- | --- |
| Cc1ccc(CN(C(=O)Nc2ccc(C3CN(C(=O)OC(C)(C)C)C3)cc2)C2CCCC2)o1 [Compound 159, tert-butyl 3-[4-[[cyclopentyl-[(5-methyl-2-furyl)methyl]-carbamoyl]amino]phenyl]azetidine-1-carboxylate] | 1000 to 5000 |
